Experimental data from PMC10879502, “Linking ATP and allosteric sites to achieve superadditive binding with bivalent EGFR kinase inhibitors” (Communications Chemistry, 2024).

Columns and labels:
[1] = system: EGFR phosphorylation (pY1068) in H3255 (LR) cells; test: Western blot; assay type: cell-based, human; settings: H3255, 6 h
Protocol: (§1) H1975, H3255, H3255GR and HCC827 lung adenocarcinoma cells (obtained from Dr. Pasi Jänne in Dana-Farber Cancer Institute, 2022) were cultured in RPMI 1640 media (Corning, 1004-CV) supplemented with 10% FBS (Tissue Culture Biologicals, 35-010-CV) and 1% penicillin-streptomycin (P/S, Corning, 30-002-CI). All cell lines were tested negative for Mycoplasma using Myco-Sniff-Rapid™ Mycoplasma Luciferase Detection Kit Plus PCR Primer Set (MP biomedicals, 0930504-CF) and were passaged and/or used for no longer than 4 weeks for all experiments H1975 and HCC-827 cells were seeded in 6-well plates with 400,000 cells per well and incubated overnight. H3255 and H3255GR cells were seeded in 12-well plates with 200,000 cells per well and were grown to confluency after 48 h. Culture medium was removed, cells washed with PBS, and lysed with lysis buffer containing 5 M NaCl, 1 M TRIS pH 8.0, 10% SDS, 10% Triton X-100 and a tablet of protease and phosphatase inhibitor. Protein lysate concentration was analyzed using Pierce BCA kit (ThermoFisher, 23225). Protein samples (10 µg) were resolved on hand-cast Criterion Tris-HCl protein gels. Primary antibodies used; phospho-EGFR (Tyr1068; #2234, 1:1,000), EGFR (#4267; 1:1,000), phospho-AKT (Ser473; #4060, 1:1,000), AKT (#9272, 1:1,000), phospho-ERK1/2 (Thr202/Tyr204; #4370, 1:1,000), and ERK1/2 (#4695, 1:1,000) antibodies; were purchased from Cell Signaling Technology. Secondary Goat anti-rabbit IgG starbright blue 700 (Biorad, 64484700) and Anti-tubulin hFAB Rhodamine Tubulin (Bio-Rad, 64512248). Western blots were visualized with the ChemiDoc MP imager (Bio-Rad) utilizing the Image Lab Touch Software (version 2.4.0.03). All Western blot images are representatives of at least 3 independent replicate experiments.

[2] = system: EGFR phosphorylation (pY1068) in H3255GR (LRTM) cells; test: Western blot; assay type: cell-based, human; settings: 6 h
Protocol: as §1

[3] = system: EGFR phosphorylation (pY1068) in HCC827 (exon19 delE746-A750) cells; test: Western blot; assay type: cell-based, human; settings: HCC827, 6 h
Protocol: as §1

[4] = target: T1, ABL1(F317L)-phosphorylated (Homo sapiens, UniProt P00519, F317L); test: KINOMEscan; assay type: binding; settings: 1 μM
T1 construct: purchased Eurofins DiscoverX Corporation

BRK = target: T2, BRK (Homo sapiens, UniProt Q13882); test: KINOMEscan; assay type: binding; settings: 1 μM
T2 construct: purchased Eurofins DiscoverX Corporation (KINOMEscan)

CDC2L5 = target: T3, CDC2L5 (Homo sapiens, UniProt Q14004); test: KINOMEscan; assay type: binding; settings: 1 μM
T3 construct: purchased Eurofins DiscoverX Corporation (KINOMEscan)
Protocol: (§2) Figure S19 : Metabolic stability determination of 4 in human liver microsomes, compared to a negative control containing bovine serum albumin instead of liver microsomes and a positive control using verapamil instead of compound.
(§3) Table S7 : Data was obtained from KINOMEscan TM using 1 μM of compound 4 against 468 kinases. Eurofins DiscoverX Corporation (San Diego), CA 92121, USA. Results stated as percent of control (POC), where lower values are associated with lower Kd values. […]
(§4) ABL1(F317L)-nonphosphorylated 37 […]
(§5) (1 picture or pasted object on this page, not shown here)

PRP4 = PRP4 (Homo sapiens, UniProt Q13523); test: KINOMEscan; assay type: binding; settings: 1 μM
Sequence of PRP4 (Q13523 whole entry): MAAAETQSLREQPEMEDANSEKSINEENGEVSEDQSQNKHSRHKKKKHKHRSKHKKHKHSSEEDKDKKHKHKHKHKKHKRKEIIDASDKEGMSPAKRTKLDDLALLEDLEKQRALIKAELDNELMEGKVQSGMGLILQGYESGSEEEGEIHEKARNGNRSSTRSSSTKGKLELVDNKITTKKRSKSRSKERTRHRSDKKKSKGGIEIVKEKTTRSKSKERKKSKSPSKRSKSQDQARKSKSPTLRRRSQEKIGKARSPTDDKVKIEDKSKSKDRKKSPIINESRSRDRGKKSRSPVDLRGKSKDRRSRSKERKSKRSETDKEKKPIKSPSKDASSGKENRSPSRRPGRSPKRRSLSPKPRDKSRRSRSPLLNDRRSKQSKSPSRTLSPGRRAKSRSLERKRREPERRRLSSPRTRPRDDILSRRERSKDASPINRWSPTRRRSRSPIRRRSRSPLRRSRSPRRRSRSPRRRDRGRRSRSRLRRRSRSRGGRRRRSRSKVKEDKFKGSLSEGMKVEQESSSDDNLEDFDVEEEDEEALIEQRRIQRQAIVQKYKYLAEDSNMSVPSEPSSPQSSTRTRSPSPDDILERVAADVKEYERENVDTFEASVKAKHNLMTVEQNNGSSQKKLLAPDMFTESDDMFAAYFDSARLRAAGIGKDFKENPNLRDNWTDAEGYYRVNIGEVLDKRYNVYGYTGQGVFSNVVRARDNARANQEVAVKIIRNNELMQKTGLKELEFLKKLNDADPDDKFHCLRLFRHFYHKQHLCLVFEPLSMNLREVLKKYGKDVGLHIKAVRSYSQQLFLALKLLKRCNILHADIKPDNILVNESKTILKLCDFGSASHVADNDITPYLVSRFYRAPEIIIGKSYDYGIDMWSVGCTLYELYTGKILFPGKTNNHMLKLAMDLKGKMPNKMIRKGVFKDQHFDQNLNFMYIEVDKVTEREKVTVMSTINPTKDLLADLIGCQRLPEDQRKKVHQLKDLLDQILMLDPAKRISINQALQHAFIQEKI
Protocol: as §2, §3, §4, §5

CDKL2 = CDKL2 (Homo sapiens, UniProt Q92772); test: KINOMEscan; assay type: binding; settings: 1 μM
Sequence of CDKL2 (Q92772 whole entry): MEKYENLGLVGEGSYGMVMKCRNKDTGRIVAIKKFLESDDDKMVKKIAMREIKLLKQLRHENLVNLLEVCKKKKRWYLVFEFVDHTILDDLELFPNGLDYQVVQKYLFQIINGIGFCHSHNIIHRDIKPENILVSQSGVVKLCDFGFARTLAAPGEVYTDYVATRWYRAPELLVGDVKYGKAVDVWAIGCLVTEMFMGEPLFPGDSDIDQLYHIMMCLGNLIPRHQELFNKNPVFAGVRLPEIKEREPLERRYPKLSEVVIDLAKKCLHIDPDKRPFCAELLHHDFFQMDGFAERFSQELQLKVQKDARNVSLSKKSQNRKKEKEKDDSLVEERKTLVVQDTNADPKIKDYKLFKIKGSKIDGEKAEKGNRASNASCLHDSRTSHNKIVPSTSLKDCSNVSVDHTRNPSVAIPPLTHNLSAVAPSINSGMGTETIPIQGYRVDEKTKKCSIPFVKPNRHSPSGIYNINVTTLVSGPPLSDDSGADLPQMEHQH

CSNK1D = target: T4, CSNK1D (Homo sapiens, UniProt P48730); test: KINOMEscan; assay type: binding; settings: 1 μM
T4 construct: purchased Eurofins DiscoverX Corporation

DYRK1B = target: T5, DYRK1B (Homo sapiens, UniProt Q9Y463); test: KINOMEscan; assay type: binding; settings: 1 μM
T5 construct: purchased Eurofins DiscoverX Corporation
T5 sequence (Q9Y463 whole entry): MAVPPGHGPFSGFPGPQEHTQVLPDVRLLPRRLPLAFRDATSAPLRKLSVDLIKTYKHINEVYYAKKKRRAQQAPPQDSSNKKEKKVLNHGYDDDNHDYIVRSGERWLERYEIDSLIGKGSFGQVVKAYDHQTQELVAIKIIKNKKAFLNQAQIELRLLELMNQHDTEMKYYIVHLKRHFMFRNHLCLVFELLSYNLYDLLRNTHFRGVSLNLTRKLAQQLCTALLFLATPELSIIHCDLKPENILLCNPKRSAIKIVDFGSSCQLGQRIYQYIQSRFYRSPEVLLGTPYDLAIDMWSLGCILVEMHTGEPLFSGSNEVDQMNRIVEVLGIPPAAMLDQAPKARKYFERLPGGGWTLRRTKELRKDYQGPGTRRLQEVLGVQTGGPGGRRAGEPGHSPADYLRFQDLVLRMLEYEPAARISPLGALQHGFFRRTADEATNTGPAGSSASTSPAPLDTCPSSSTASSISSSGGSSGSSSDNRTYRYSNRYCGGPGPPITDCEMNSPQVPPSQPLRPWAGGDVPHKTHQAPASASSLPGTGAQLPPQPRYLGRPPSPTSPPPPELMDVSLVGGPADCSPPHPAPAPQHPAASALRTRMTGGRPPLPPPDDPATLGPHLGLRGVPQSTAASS

EGFR(L861Q) = EGFR(L861Q) (Homo sapiens, UniProt P00533, L861Q); test: KINOMEscan; assay type: binding; settings: 1 μM
EPHB3 = EPHB3 (Homo sapiens, UniProt P54753); test: KINOMEscan; assay type: binding; settings: 1 μM
Sequence of EPHB3 (P54753 34-998): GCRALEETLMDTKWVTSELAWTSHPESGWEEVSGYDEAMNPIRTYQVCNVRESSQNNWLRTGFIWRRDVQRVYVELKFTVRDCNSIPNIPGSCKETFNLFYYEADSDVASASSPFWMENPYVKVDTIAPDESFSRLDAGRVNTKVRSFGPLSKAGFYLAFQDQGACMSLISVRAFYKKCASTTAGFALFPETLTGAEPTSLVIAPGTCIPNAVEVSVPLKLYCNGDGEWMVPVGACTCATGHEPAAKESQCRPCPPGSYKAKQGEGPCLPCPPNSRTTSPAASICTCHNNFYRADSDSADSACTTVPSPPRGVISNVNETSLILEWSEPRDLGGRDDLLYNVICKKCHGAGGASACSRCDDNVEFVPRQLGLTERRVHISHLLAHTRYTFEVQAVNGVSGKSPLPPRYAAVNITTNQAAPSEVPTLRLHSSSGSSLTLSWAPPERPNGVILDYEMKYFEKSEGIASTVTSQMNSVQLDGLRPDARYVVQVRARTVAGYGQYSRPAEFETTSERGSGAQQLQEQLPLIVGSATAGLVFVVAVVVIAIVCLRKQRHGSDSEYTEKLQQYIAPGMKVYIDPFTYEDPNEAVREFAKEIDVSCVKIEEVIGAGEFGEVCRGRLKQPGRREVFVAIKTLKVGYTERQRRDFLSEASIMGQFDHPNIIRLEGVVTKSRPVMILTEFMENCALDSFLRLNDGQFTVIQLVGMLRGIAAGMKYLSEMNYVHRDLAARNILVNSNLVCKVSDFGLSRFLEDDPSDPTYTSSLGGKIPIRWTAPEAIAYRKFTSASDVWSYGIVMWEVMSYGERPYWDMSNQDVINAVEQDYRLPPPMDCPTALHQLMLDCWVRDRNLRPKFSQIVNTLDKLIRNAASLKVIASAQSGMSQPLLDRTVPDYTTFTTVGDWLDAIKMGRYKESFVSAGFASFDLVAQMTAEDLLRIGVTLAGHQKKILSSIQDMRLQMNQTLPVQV

ERBB3 = ERBB3 (Homo sapiens, UniProt P21860); test: KINOMEscan; assay type: binding; settings: 1 μM
ERK8 = ERK8 (Homo sapiens, UniProt Q8TD08); test: KINOMEscan; assay type: binding; settings: 1 μM
FLT3(K663Q) = target: T6, FLT3(K663Q) (Homo sapiens, UniProt P36888, K663Q); test: KINOMEscan; assay type: binding; settings: 1 μM
T6 construct: purchased Eurofins DiscoverX Corporation

HCK = target: T7, HCK (Homo sapiens, UniProt P08631); test: KINOMEscan; assay type: binding; settings: 1 μM
T7 construct: purchased Eurofins DiscoverX Corporation

ITK = target: T8, ITK (Homo sapiens, UniProt Q08881); test: KINOMEscan; assay type: binding; settings: 1 μM
T8 construct: purchased Eurofins DiscoverX (KINOMEscan)

LCK = target: T9, LCK (Homo sapiens, UniProt P06239); test: KINOMEscan; assay type: binding; settings: 1 μM
T9 construct: purchased Eurofins DiscoverX Corporation

LYN = target: T10, LYN (Homo sapiens, UniProt P07948); test: KINOMEscan; assay type: binding; settings: 1 μM
T10 construct: purchased Eurofins DiscoverX Corporation

MAP4K5 = target: T11, MAP4K5 (Homo sapiens, UniProt Q9Y4K4); test: KINOMEscan; assay type: binding; settings: 1 μM
T11 construct: purchased Eurofins DiscoverX Corporation

MELK = target: T12, MELK (Homo sapiens, UniProt Q14680); test: KINOMEscan; assay type: binding; settings: 1 μM
T12 construct: purchased Eurofins DiscoverX Corporation
T12 sequence (Q14680 whole entry): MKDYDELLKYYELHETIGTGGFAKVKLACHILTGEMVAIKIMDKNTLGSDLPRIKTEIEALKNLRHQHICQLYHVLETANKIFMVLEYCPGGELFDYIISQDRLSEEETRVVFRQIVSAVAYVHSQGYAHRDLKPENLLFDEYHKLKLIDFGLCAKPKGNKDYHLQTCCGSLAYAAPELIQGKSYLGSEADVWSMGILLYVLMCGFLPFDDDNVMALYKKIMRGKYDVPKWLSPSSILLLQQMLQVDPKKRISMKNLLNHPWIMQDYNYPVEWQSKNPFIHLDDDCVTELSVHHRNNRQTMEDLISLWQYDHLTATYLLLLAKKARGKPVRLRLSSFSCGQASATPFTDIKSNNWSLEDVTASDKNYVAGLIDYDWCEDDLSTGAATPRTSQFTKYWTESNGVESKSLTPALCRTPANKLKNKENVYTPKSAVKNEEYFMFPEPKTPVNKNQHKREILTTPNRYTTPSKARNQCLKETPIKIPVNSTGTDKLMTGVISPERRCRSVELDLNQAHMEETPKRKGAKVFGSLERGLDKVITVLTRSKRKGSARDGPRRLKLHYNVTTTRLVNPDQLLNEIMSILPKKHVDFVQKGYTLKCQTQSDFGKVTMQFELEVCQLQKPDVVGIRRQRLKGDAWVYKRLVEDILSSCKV

NDR2 = target: T13, NDR2 (Homo sapiens, UniProt Q9Y2H1); test: KINOMEscan; assay type: binding; settings: 1 μM
T13 construct: purchased Eurofins DiscoverX Corporation
T13 sequence (Q9Y2H1 whole entry): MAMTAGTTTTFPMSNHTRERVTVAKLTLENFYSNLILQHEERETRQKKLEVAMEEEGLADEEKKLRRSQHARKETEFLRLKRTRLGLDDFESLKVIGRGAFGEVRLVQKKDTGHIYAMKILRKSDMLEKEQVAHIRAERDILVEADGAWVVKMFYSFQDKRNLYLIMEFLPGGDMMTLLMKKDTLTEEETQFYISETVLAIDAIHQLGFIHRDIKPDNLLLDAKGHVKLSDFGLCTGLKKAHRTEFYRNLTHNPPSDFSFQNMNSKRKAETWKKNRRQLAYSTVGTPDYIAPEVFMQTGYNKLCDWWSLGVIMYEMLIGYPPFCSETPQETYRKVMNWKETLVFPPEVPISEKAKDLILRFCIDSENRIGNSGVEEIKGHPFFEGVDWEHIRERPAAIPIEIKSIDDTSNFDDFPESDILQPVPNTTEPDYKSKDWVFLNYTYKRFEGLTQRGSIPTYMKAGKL

p38-alpha = p38-alpha (Homo sapiens, UniProt Q16539); test: KINOMEscan; assay type: binding; settings: 1 μM
Sequence of p38-alpha (Q16539 whole entry): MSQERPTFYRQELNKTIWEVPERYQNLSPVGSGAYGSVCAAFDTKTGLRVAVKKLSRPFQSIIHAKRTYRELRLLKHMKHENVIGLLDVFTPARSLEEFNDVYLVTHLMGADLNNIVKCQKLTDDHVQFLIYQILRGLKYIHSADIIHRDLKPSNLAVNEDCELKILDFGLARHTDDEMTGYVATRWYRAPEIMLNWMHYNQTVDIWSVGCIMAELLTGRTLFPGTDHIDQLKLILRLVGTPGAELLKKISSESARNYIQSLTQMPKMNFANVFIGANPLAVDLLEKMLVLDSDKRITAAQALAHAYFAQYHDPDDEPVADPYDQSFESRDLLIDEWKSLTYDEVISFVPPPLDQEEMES

PFTAIRE2 = PFTAIRE2 (Homo sapiens, UniProt Q96Q40); test: KINOMEscan; assay type: binding; settings: 1 μM
[5] = target: RPS6KA4(Kin.Dom.1-N-terminal) (Homo sapiens, UniProt O75676); test: KINOMEscan; assay type: binding; settings: 1 μM
Sequence of RPS6KA4(Kin.Dom.1-N-terminal) (O75676 33-301 limits assumed): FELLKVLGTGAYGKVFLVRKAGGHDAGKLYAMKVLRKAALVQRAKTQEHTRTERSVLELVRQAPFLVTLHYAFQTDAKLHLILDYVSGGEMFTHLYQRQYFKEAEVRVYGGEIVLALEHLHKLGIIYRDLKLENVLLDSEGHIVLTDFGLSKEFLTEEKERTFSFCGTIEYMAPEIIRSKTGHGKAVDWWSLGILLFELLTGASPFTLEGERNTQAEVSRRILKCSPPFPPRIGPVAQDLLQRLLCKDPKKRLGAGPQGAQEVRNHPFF

TRKB = target: T14, TRKB (Homo sapiens, UniProt Q16620); test: KINOMEscan; assay type: binding; settings: 1 μM
T14 construct: purchased Eurofins DiscoverX Corporation

TTK = TTK (Homo sapiens, UniProt P33981); test: KINOMEscan; assay type: binding; settings: 1 μM

SMILES: C=CC(=O)Nc1ccc(OC)c(Nc2cc(-c3[nH]c(CC)nc3-c3cccc(NC(=O)c4cccc5c4NC(=O)c4ccccc4N5)c3)ccn2)c1 [Compound 4]
- suppression of EGFR pY1068 phosphorylation [1]: analogous suppression of EGFR pY1068 phosphorylation
- suppression of EGFR pY1068 phosphorylation [2]: analogous suppression of EGFR pY1068 phosphorylation
- suppression of EGFR pY1068 phosphorylation [3]: analogous suppression of EGFR pY1068 phosphorylation
- POC [4]: 85% of control
- POC (BRK): 96% of control
- POC (CDC2L5): 74% of control
- POC (PRP4): 46% of control
- POC (CDKL2): 100% of control
- POC (CSNK1D): 87% of control
- POC (DYRK1B): 88% of control
- POC (EGFR(L861Q)): 2.7% of control
- POC (EPHB3): 100% of control
- POC (ERBB3): 84% of control
- POC (ERK8): 100% of control
- POC (FLT3(K663Q)): 87% of control
- POC (HCK): 14% of control
- POC (ITK): 87% of control
- POC (LCK): 7.7% of control
- POC (LYN): 22% of control
- POC (MAP4K5): 2.5% of control
- POC (MELK): 100% of control
- POC (NDR2): 77% of control
- POC (p38-alpha): 46% of control
- POC (PFTAIRE2): 84% of control
- POC [5]: 96% of control
- POC (TRKB): 100% of control
- POC (TTK): 72% of control
